System: bacterial contamination of calcium carbonate-based slurry
Conditions: THPS solution added to calcium carbonate-based slurry; in 2 hours

How did the “reduction in bacterial count” value turn out when “tetrakis(hydroxymethyl)phosphonium sulphate [THPS]” was run?
The value was 10^4.

Source: patent US20130225534A1, “METHODS FOR TREATING AN INORGANIC SLURRY” (Rhodia Operations, priority 2003, published 2013)
